# Source: patent US20230242585A1, “IMMUNOMODULATORS” (Bristol-Myers Squibb Company, priority 2020, published 2023)
# Starred links: 1 amine or outer side, 2 acyl side, 3 side chain; linkers in the order of their positions; H or OH if unused. Positions of bridges follow the written chain, without caps; N, C: chain ends. Non-standard residues stand in square brackets, D forms with d. Residues, ends and D or L forms follow the SMILES beside them. X48 = O=C([C@H](CCNCc1ccccc1O[C@@H]1O[C@H](CO)[C@@H](O)[C@H](O)[C@H]1O)N[*:1])[*:2]; X47 = O=C([C@H](CNCc1ccccc1O[C@@H]1O[C@H](CO)[C@@H](O)[C@H](O)[C@H]1O)N[*:1])[*:2]; Trp(1-CH2COOH) = N[C@@H](Cc1cn(CC(=O)O)c2ccccc12)C(=O)O; X65 = O=C([C@H](CCNCc1ccccc1-c1ccc(Cl)cc1)N[*:1])[*:2]; X64 = O=C([C@H](CNCc1ccccc1-c1ccc(Cl)cc1)N[*:1])[*:2]; X12 = O=C([C@H](CNCc1cccc2ccc3ccccc3c12)N[*:1])[*:2]; X19 = O=C([C@H](CCNCc1cccc2nccnc12)N[*:1])[*:2]; X18 = O=C([C@H](CNCc1cccc2nccnc12)N[*:1])[*:2]; Hyp = O=C(O)[C@@H]1C[C@@H](O)CN1; NMeNle = CCCC[C@H](NC)C(=O)O; NMeA = CN[C@@H](C)C(=O)O; Dab = NCC[C@H](N)C(=O)O
# Target: T1, PD-1/PD-L1 (Homo sapiens, UniProt Q9NZQ7)
# T1 construct: TVMV protease site (linker) (C); made in house; host or cells: HEK293T cells
# Experiment: PD-1/PD-L1 Homogenous Time-Resolved Fluorescence (HTRF) binding assay
# Details: PD-L1-His 10 nM, PD-1-Ig 20 nM
# Excerpt: The ability of the compounds of formula (I) to bind to PD-L1 was investigated using a PD-1/PD-L1 Homogenous Time-Resolved Fluorescence (HTRF) binding assay.
# The interaction of PD-1 and PD-L1 can be assessed using soluble, purified preparations of the extracellular domains of the two proteins. The PD-1 and PD-L1 protein extracellular domains were expressed as fusion proteins with detection tags, for PD-1, the tag was the Fc portion of Immunoglobulin (PD-1-Ig) and for PD-L1 it was the 6 histidine motif (PD-L1-His). All binding studies were performed in an HTRF assay buffer consisting of dPBS supplemented with 0.1% […] bovine serum albumin and 0.05% (v/v) Tween-20. For the h/PD-L1-His binding assay, inhibitors were pre-incubated with PD-L1-His (10 nM final) for 15 m in 4 µl of assay buffer, followed by addition of PD-1-Ig (20 nM final) in 1 µl of assay buffer and further incubation for 15 m. HTRF detection was achieved using europium crypate-labeled anti-Ig (1 nM final) and allophycocyanin (APC) labeled anti-His (20 nM final). Antibodies were diluted in HTRF detection buffer and 5 µl was dispensed on top of the binding reaction. The reaction mixture was allowed to equilibrate for 30 minutes and the resulting signal (665 nm/620 nm ratio) was obtained using an EnVision fluorometer. Additional binding assays were established between the human proteins PD-1-Ig/PD-L2-His (20 & 5 nM, respectively) and CD80-His/PD-L1-Ig (100 & 10 nM, respectively).
# Recombinant Proteins: Human PD-1 (25-167) with a C-terminal human Fc domain of immunoglobulin G (Ig) epitope tag [hPD-1 (25-167)-3S-IG] and human PD-L1 (18-239) with a C-terminal His epitope tag [hPD-L1(18-239)-TVMV-His] were expressed in HEK293T cells and purified sequentially by ProteinA affinity chromatography and size exclusion chromatography. Human PD-L2-His and CD80-His was obtained through commercial sources.
# Table 1 lists the IC50 values for representative examples of this disclosure measured in the PD-1/PD-L1 Homogenous Time-Resolved Fluorescence (HTRF) binding assay.
# T1 sequence (Q9NZQ7 18-239): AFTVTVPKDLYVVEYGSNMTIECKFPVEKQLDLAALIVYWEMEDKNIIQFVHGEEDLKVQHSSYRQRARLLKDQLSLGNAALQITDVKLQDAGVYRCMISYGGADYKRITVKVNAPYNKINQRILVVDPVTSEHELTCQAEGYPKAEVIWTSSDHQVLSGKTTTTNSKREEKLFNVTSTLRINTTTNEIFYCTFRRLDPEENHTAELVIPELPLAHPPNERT
row,IC50,Compound
1,14 nM,CCCC[C@H]1C(=O)N(C)[C@@H](CCCC)C(=O)N[C@@H](CC(C)C)C(=O)N[C@H](C(=O)NCC(N)=O)CSCC(=O)N[C@@H](Cc2ccc(O)cc2)C(=O)N(C)[C@@H](C)C(=O)N[C@@H](CC(N)=O)C(=O)N2CCC[C@H]2C(=O)N[C@@H](CNCc2ccccc2-c2ccc(Cl)cc2)C(=O)N[C@@H](CC(C)C)C(=O)N2C[C@H](O)C[C@H]2C(=O)N[C@@H](Cc2c[nH]c3ccccc23)C(=O)N[C@@H](CCNCc2ccccc2-c2ccc(Cl)cc2)C(=O)N[C@@H](Cc2cn(CC(=O)O)c3ccccc23)C(=O)N1C [Example 1001] ({CH2CO}-Y[NMeA]NP[X64]L[Hyp]W[X65][Trp(1-CH2COOH)][NMeNle][NMeNle]LCG-NH2; thioether N-14)
2,6.1 nM,CCCC[C@H]1C(=O)N(C)[C@@H](CCCC)C(=O)N[C@@H](CC(C)C)C(=O)N[C@H](C(=O)NCC(N)=O)CSCC(=O)N[C@@H](Cc2ccc(O)cc2)C(=O)N(C)[C@@H](C)C(=O)N[C@@H](CC(N)=O)C(=O)N2CCC[C@H]2C(=O)N[C@@H](CNCc2cccc3nccnc23)C(=O)N[C@@H](CC(C)C)C(=O)N2C[C@H](O)C[C@H]2C(=O)N[C@@H](Cc2c[nH]c3ccccc23)C(=O)N[C@@H](CCNCc2cccc3nccnc23)C(=O)N[C@@H](Cc2cn(CC(=O)O)c3ccccc23)C(=O)N1C [Example 1002] ({CH2CO}-Y[NMeA]NP[X18]L[Hyp]W[X19][Trp(1-CH2COOH)][NMeNle][NMeNle]LCG-NH2; thioether N-14)
3,4.3 nM,CCCC[C@H]1C(=O)N(C)[C@@H](CCCC)C(=O)N[C@@H](CC(C)C)C(=O)N[C@H](C(=O)NCC(N)=O)CSCC(=O)N[C@@H](Cc2ccc(O)cc2)C(=O)N(C)[C@@H](C)C(=O)N[C@@H](CC(N)=O)C(=O)N2CCC[C@H]2C(=O)N[C@@H](CNCc2cccc3nccnc23)C(=O)N[C@@H](CC(C)C)C(=O)N2C[C@H](O)C[C@H]2C(=O)N[C@@H](Cc2c[nH]c3ccccc23)C(=O)N[C@@H](CCN)C(=O)N[C@@H](Cc2cn(CC(=O)O)c3ccccc23)C(=O)N1C [Example 1004] ({CH2CO}-Y[NMeA]NP[X18]L[Hyp]W[Dab][Trp(1-CH2COOH)][NMeNle][NMeNle]LCG-NH2; thioether N-14)

# The remaining lines, values behind:
row,Compound,IC50
1,CCCC[C@H]1C(=O)N(C)[C@@H](CCCC)C(=O)N[C@@H](CC(C)C)C(=O)N[C@H](C(=O)NCC(N)=O)CSCC(=O)N[C@@H](Cc2ccc(O)cc2)C(=O)N(C)[C@@H](C)C(=O)N[C@@H](CC(N)=O)C(=O)N2CCC[C@H]2C(=O)N[C@@H](CNCc2cccc3ccc4ccccc4c23)C(=O)N[C@@H](CC(C)C)C(=O)N2C[C@H](O)C[C@H]2C(=O)N[C@@H](Cc2c[nH]c3ccccc23)C(=O)N[C@@H](CCN)C(=O)N[C@@H](Cc2cn(CC(=O)O)c3ccccc23)C(=O)N1C [Example 1005] ({CH2CO}-Y[NMeA]NP[X12]L[Hyp]W[Dab][Trp(1-CH2COOH)][NMeNle][NMeNle]LCG-NH2; thioether N-14),120 nM
2,CCCC[C@H]1C(=O)N(C)[C@@H](CCCC)C(=O)N[C@@H](CC(C)C)C(=O)N[C@H](C(=O)NCC(N)=O)CSCC(=O)N[C@@H](Cc2ccc(O)cc2)C(=O)N(C)[C@@H](C)C(=O)N[C@@H](CC(N)=O)C(=O)N2CCC[C@H]2C(=O)N[C@@H](CNCc2ccccc2O[C@@H]2O[C@H](CO)[C@@H](O)[C@H](O)[C@H]2O)C(=O)N[C@@H](CC(C)C)C(=O)N2C[C@H](O)C[C@H]2C(=O)N[C@@H](Cc2c[nH]c3ccccc23)C(=O)N[C@@H](CCNCc2ccccc2O[C@@H]2O[C@H](CO)[C@@H](O)[C@H](O)[C@H]2O)C(=O)N[C@@H](Cc2cn(CC(=O)O)c3ccccc23)C(=O)N1C [Example 1006] ({CH2CO}-Y[NMeA]NP[X47]L[Hyp]W[X48][Trp(1-CH2COOH)][NMeNle][NMeNle]LCG-NH2; thioether N-14),32 nM
3,CCCC[C@H]1C(=O)N(C)[C@@H](CCCC)C(=O)N[C@@H](CC(C)C)C(=O)N[C@H](C(=O)NCC(N)=O)CSCC(=O)N[C@@H](Cc2ccc(O)cc2)C(=O)N(C)[C@@H](C)C(=O)N[C@@H](CC(N)=O)C(=O)N2CCC[C@H]2C(=O)N[C@@H](CNCc2ccccc2O[C@@H]2O[C@H](CO)[C@@H](O)[C@H](O)[C@H]2O)C(=O)N[C@@H](CC(C)C)C(=O)N2C[C@H](O)C[C@H]2C(=O)N[C@@H](Cc2c[nH]c3ccccc23)C(=O)N[C@@H](CCN)C(=O)N[C@@H](Cc2cn(CC(=O)O)c3ccccc23)C(=O)N1C [Example 1007] ({CH2CO}-Y[NMeA]NP[X47]L[Hyp]W[Dab][Trp(1-CH2COOH)][NMeNle][NMeNle]LCG-NH2; thioether N-14),12 nM
